Assay results: patent US7250396B2, “Juvenile hormone compositions and methods for making same” (priority 2003, dated 2007)

Key:
Indian Meal Moth adults = assay: Adult exposure to liquid methoprene in a UV coating: egg production and viability; format: in vivo, Plodia Interpunctella; details: for Total Percent Reduction: compared to the control; for Total No. of Eggs: eggs collected over 8 days; for Total No. of Viable Eggs: eggs that hatched
Description: An experiment was set up to determine how egg production would be affected when Indian Meal Moth adults were exposed to liquid methoprene in a UV coating. Adults were allowed to emerge into jars lined with treated paper. The treatment levels tested were a control at 0 wppm to 1000 wppm increasing by increments of 10×. A combination treatment of liquid methoprene at 1000 wppm and 1 weight percent diatomaceous earth was also tested. The eggs produced fell to a treated surface before being collected and placed into rearing food. Observations and egg collections were taken over a […] period.
The adults came from stock insects and the number exposed per treatment was not predetermined. The total number of eggs represents all eggs per treatment collected over 8 days. The total number of viable eggs represents the number of eggs that hatched. These larvae were allowed to feed for 14 days before counting.

[1] = test system: day 16 larvae of the Indian Meal Moth, Plodia Interpunctella; assay: Effect of methoprene at low concentrations: day 16 larvae on treated paper (behavior, webbing, survival over 19 days); format: in vivo
Description: An experiment was set up to determine the effectiveness of methoprene at very low concentrations on day 16 larvae of the Indian Meal Moth, Plodia Interpunctella. The concentrations tested ranged from the control at 0 wppm to 1000 wppm increasing by increments of 10×. Ten larvae per sample were added to the treated paper and exposed throughout the experiment in an incubator (Precision Model No. 815) at 80° F. (27° C.) and at a relative humidity of 60 percent. Behavior, webbing characteristics and survival rates were observed over 19 days.
The coating formulation components (excluding methoprene) and preparation procedure are described in Table 1, below.
As the Benzophenone was added to the mixture in step 7, above, the mixture was stirred in a mixer at 1500 rpm and at a temperature of 70° F. (21° C.) until the benzophenone was dissolved. As the methoprene was added to the mixture in step 8, above, the mixture was stirred in a mixer at 1500 rpm and at a temperature of 89° F. (32° C.).

[2] = test system: 16 day Indian Meal Moth larvae; assay: Exposure of 16 day larvae to methoprene for varying periods of time; format: in vivo, Plodia Interpunctella; details: 1000 wppm MP
Description: An experiment was set up to determine the effect of exposing 16 day Indian Meal Moth larvae to methoprene for varying periods of time. The treatment levels tested were control at 0 wppm methoprene and 1000 wppm methoprene. Five larvae (3 females, 2 males) per sample were added to paper treated with the coating composition described in Example 1. The larvae were exposed to the samples for different amount of time. The times of exposure were 0 hrs., 20 min., 1 hr., 2 hrs., 4 hrs., 8 hrs., and 24 hrs. After larvae were exposed for the set amount of time, they were placed in an incubator (Precision Model No. 815) at 80° F. (27° C.) and at a relative humidity of 60 percent, where they were allowed to pupate, become adults, and reproduce. Observations were obtained throughout a 16 day period. From when adults hatched, the number of adults were counted and averaged over the remainder of the experiment. The number of new eggs were also counted and the average number of eggs per adult was calculated. Generally, egg production decreased as treatment levels increased.

SMILES: COC(C)(C)CCCC(C)C/C=C/C(C)=C/C(=O)OC(C)C (centres unmarked) [methoprene, isopropyl-(2E, 4E)-11-methoxy-3,7,11-trimethyl-2,4-dodecadienoate]
- Percent Viable Eggs (Indian Meal Moth adults; 10 wppm MP): 7.5%
- Total Percent Reduction (Indian Meal Moth adults; 10 wppm MP): 85.6%
- Total No. of Eggs (Indian Meal Moth adults; 10 wppm MP): 1430
- Total No. of Viable Eggs (Indian Meal Moth adults; 10 wppm MP): 108
- Percent Viable Eggs (Indian Meal Moth adults; 100 wppm MP): 18%
- Total Percent Reduction (Indian Meal Moth adults; 100 wppm MP): 65.4%
- Total No. of Eggs (Indian Meal Moth adults; 100 wppm MP): 1285
- Total No. of Viable Eggs (Indian Meal Moth adults; 100 wppm MP): 234
- Percent Viable Eggs (Indian Meal Moth adults; 1000 wppm MP): 36%
- Total Percent Reduction (Indian Meal Moth adults; 1000 wppm MP): 30.8%
- Total No. of Eggs (Indian Meal Moth adults; 1000 wppm MP): 1190
- Total No. of Viable Eggs (Indian Meal Moth adults; 1000 wppm MP): 432
- SURVIVAL RATE ([1]; 1 wppm methoprene in coating, day 4): 8 number of larvae surviving out of 10 larvae
- SURVIVAL RATE ([1]; 1 wppm methoprene in coating, day 7): 7 number of larvae surviving out of 10 larvae
- SURVIVAL RATE ([1]; 1 wppm methoprene in coating, day 11): 6 number of larvae surviving out of 10 larvae
- SURVIVAL RATE ([1]; 1 wppm methoprene in coating, day 13): 5 number of larvae surviving out of 10 larvae
- SURVIVAL RATE ([1]; 1 wppm methoprene in coating, day 19): 1 number of larvae surviving out of 10 larvae
- SURVIVAL RATE ([1]; 10 wppm methoprene in coating, day 4): 8 number of larvae surviving out of 10 larvae
- SURVIVAL RATE ([1]; 10 wppm methoprene in coating, day 7): 8 number of larvae surviving out of 10 larvae
- SURVIVAL RATE ([1]; 10 wppm methoprene in coating, day 11): 7 number of larvae surviving out of 10 larvae
- SURVIVAL RATE ([1]; 10 wppm methoprene in coating, day 13): 7 number of larvae surviving out of 10 larvae
- SURVIVAL RATE ([1]; 10 wppm methoprene in coating, day 19): 2 number of larvae surviving out of 10 larvae
- SURVIVAL RATE ([1]; 100 wppm methoprene in coating, day 4): 6 number of larvae surviving out of 10 larvae
- SURVIVAL RATE ([1]; 100 wppm methoprene in coating, day 7): 4 number of larvae surviving out of 10 larvae
- SURVIVAL RATE ([1]; 100 wppm methoprene in coating, day 11): 1 number of larvae surviving out of 10 larvae
- SURVIVAL RATE ([1]; 100 wppm methoprene in coating, day 13): 1 number of larvae surviving out of 10 larvae
- SURVIVAL RATE ([1]; 100 wppm methoprene in coating, day 19): 1 number of larvae surviving out of 10 larvae
- SURVIVAL RATE ([1]; 1000 wppm methoprene in coating, day 4): 7 number of larvae surviving out of 10 larvae
- SURVIVAL RATE ([1]; 1000 wppm methoprene in coating, day 7): 5 number of larvae surviving out of 10 larvae
- SURVIVAL RATE ([1]; 1000 wppm methoprene in coating, day 11): 3 number of larvae surviving out of 10 larvae
- SURVIVAL RATE ([1]; 1000 wppm methoprene in coating, day 13): 3 number of larvae surviving out of 10 larvae
- SURVIVAL RATE ([1]; 1000 wppm methoprene in coating, day 19): 0 number of larvae surviving out of 10 larvae
- Behavior ([1]; exposed larvae, as early as day 4 of the testing period, increased nipping and cannibalism): showed signs of aggression
- Webbing characteristics ([1]; larvae exposed to 1 wppm methoprene): slightly thicker throughout the dish than the control
- Webbing characteristics ([1]; larvae exposed to 10 wppm methoprene): thicker, more centralized webbing
- Webbing characteristics ([1]; larvae exposed to 10 wppm methoprene (second mention, compared with the 10 wppm sample)): dense and more centralized than the 10 wppm methoprene sample
- Webbing characteristics ([1]; larvae exposed to 1000 wppm methoprene): completely centralized mound of webbing
- survival rate compared to the control sample ([1]; treatment levels as low as 1 wppm): significant decrease in survival rate
- Average No. of Adults/Day ([2]; time exposed 20 min.): 10
- Average No. of Eggs/Adult ([2]; time exposed 20 min.): 34
- Average No. of Adults/Day ([2]; time exposed 1 hr.): 12
- Average No. of Eggs/Adult ([2]; time exposed 1 hr.): 30
- Average No. of Adults/Day ([2]; time exposed 2 hrs.): 12
- Average No. of Eggs/Adult ([2]; time exposed 2 hrs.): 19
- Average No. of Adults/Day ([2]; time exposed 4 hrs.): 10
- Average No. of Eggs/Adult ([2]; time exposed 4 hrs.): 25
- Average No. of Adults/Day ([2]; time exposed 8 hrs.): 9
- Average No. of Eggs/Adult ([2]; time exposed 8 hrs.): 17
- Average No. of Adults/Day ([2]; time exposed 24 hrs.): 7
- Average No. of Eggs/Adult ([2]; time exposed 24 hrs.): 9
